According to publication PMC9460261, “Need for a Standardized Translational Drug Development Platform: Lessons Learned from the Repurposing of Drugs for COVID-19” (Microorganisms, 2022):
Structures can show the parent of a compound that is named as a salt. Where two headings read alike, the source gives them in different places.

What was measured:
[1] = test system: SARS-CoV-2 in A549-Dual hACE2-TMPRSS2 cells; assay: microbe, parasite or virus in culture; conditions: Severe acute respiratory syndrome coronavirus 2, read-out: A549-Dual hACE2-TMPRSS2 cells Average EC50
[2] = test system: SARS-CoV-2 in A549-Dual hACE2-TMPRSS2 cells; conditions: for EC50: read-out: A549-Dual hACE2-TMPRSS2 cells Average EC50
[3] = test system: SARS-CoV-2 in Human Airway Epithelia (HAE)

Row | Compound | EC50 [1] | Activity In Vitro; Potency EC50 or IC50 < 10 µM; A549 Cells [2] | Concentration showing activity / complete inhibition of viral replication in HAE [3] | Activity Ex Vivo Human Airway Epithelia (HAE) [3] | EC50 [2] | A549-Dual hACE2-TMPRSS2 cells Average EC50 [2] | Toxicity observed (^T), A549 Cells [2]
1 | CC(=O)Oc1ccccc1C(=O)Nc1ncc([N+](=O)[O-])s1 [Nitazoxanide, nitazoxanide] | > 100 µM | No (Potency EC50 or IC50 < 10 µM) | 5 µM |  |  |  | 
2 | CC(C)C(=O)OC[C@H]1O[C@@H](n2ccc(NO)nc2=O)[C@H](O)[C@@H]1O [Molnupiravir, molnupiravir] | 3.6 µM | Yes (Potency EC50 or IC50 < 10 µM) | 10 µM | Yes |  |  | 
3 | CNCCC(Oc1ccc(C(F)(F)F)cc1)c1ccccc1 (stereo not drawn) [Fluoxetine, fluoxetine] |  | No (key: Yes: Potency EC50 or IC50 < 10 µM; No: Potency EC50 or IC50 < 10 µM) |  | No |  |  | 
4 | COC(=O)N[C@H](C(=O)N[C@@H](Cc1ccccc1)[C@@H](O)CN(Cc1ccc(-c2ccccn2)cc1)NC(=O)[C@@H](NC(=O)OC)C(C)(C)C)C(C)(C)C [Atazanavir, atazanavir] | 24 µM |  |  |  |  |  | 
5 | COCCCC/C(=N\OCCN)c1ccc(C(F)(F)F)cc1 [Fluvoxamine maleate, fluvoxamine maleate] | 39.9 µM | No (key: Yes: Potency EC50 or IC50 < 10 µM; No: Potency EC50 or IC50 < 10 µM) |  | No |  |  | 
6 | O=c1nc(NO)ccn1[C@@H]1O[C@H](CO)[C@@H](O)[C@H]1O [EIDD-1931] |  |  |  |  | 0.47 µM |  | 
7 | Nc1c(Br)cc(Br)cc1CN[C@H]1CC[C@H](O)CC1 [Ambroxol, ambroxol] | > 50 µM | No (Potency EC50 or IC50 < 10 µM) |  | No |  |  | 
8 | ivermectin |  | Yes (Potency EC50 or IC50 < 10 µM) |  | Yes |  | +NA | 
9 | CCN(CC)Cc1cc(Nc2ccnc3cc(Cl)ccc23)ccc1O [Amodiaquine, amodiaquine] | > 50 µM | No (Potency EC50 or IC50 < 10 µM) |  | No |  |  | 
10 | CC(C)/N=c1\cc2n(-c3ccc(Cl)cc3)c3ccccc3nc-2cc1Nc1ccc(Cl)cc1 [Clofazimine, clofazimine] | 2.4 µM | Yes (Potency EC50 or IC50 < 10 µM) |  | No |  |  | Yes ^T
11 | CC(C)(C)[C@H](NC(=O)C(F)(F)F)C(=O)N1C[C@H]2[C@@H]([C@H]1C(=O)N[C@H](C#N)C[C@@H]1CCNC1=O)C2(C)C [Nirmatrelvir, nirmatrelvir] |  | Yes (Potency EC50 or IC50 < 10 µM) | 1 µM | Yes |  |  | 
12 | CN(C)C(=O)COC(=O)Cc1ccc(OC(=O)c2ccc(NC(=N)N)cc2)cc1 [Camostat mesylate, camostat mesylate] | > 50 µM | No (Potency EC50 or IC50 < 10 µM) | 10 µM | Yes |  |  | 
13 | CC(C)OC(=O)[C@H](C)N[P@](=O)(OC[C@H]1O[C@@H](n2ccc(=O)[nH]c2=O)[C@](C)(F)[C@@H]1O)Oc1ccccc1 [Sofosbuvir, sofosbuvir] | > 50 µM | No (Potency EC50 or IC50 < 10 µM) |  | No |  |  | 
14 | CC1(C)C(=O)N(c2ccc(C#N)c(C(F)(F)F)c2F)C(=S)N1c1ccc(CCCc2ncco2)nc1 [Proxalutamide, proxalutamide] |  | No (Potency EC50 or IC50 < 10 µM) |  | No | > 50 µM |  | 
15 | COc1cc2c(c(OC)c1OC)-c1ccc(OC)c(=O)cc1[C@@H](NC(C)=O)CC2 [Colchicine, colchicine] |  | Yes ^T (key: Yes: Potency EC50 or IC50 < 10 µM; No: Potency EC50 or IC50 < 10 µM) |  | No |  |  | 
16 | COc1ccc2cc1Oc1ccc(cc1)C[C@H]1c3c(cc4c(c3Oc3cc5c(cc3OC)CCN(C)[C@@H]5C2)OCO4)CCN1C [Cepharanthine, cepharanthine] | > 50 µM | No (Potency EC50 or IC50 < 10 µM) |  | No |  |  | 
17 | COC(=O)N[C@H](C(=O)N1CCC[C@H]1c1nc(-c2ccc(-c3ccc(-c4c[nH]c([C@@H]5CCCN5C(=O)[C@@H](NC(=O)OC)C(C)C)n4)cc3)cc2)c[nH]1)C(C)C [Daclatasvir, daclatasvir] | > 50 µM | No (Potency EC50 or IC50 < 10 µM) |  | No |  |  | 
18 | NC(=O)c1nc(F)c[nH]c1=O [Favipiravir, favipiravir] | > 100 µM | No (Potency EC50 or IC50 < 10 µM) |  | No |  |  | 
19 | CCCN(CCC)S(=O)(=O)c1ccc(C(=O)O)cc1 [Probenecid, probenecid] | > 50 µM | No (Potency EC50 or IC50 < 10 µM) |  | No |  |  | 
20 | Cc1c(O)cccc1C(=O)N[C@@H](CSc1ccccc1)[C@H](O)CN1C[C@H]2CCCC[C@H]2C[C@H]1C(=O)NC(C)(C)C [Nelfinavir, nelfinavir] | 3.2 µM | Yes (Potency EC50 or IC50 < 10 µM) | 10 µM | Yes |  |  | Yes ^T
21 | bemnifosbuvir |  | No (Potency EC50 or IC50 < 10 µM) |  | No | > 50 µM |  | 
22 | OC(c1cc(C(F)(F)F)nc2c(C(F)(F)F)cccc12)C1CCCCN1 (stereo not drawn) [Mefloquine, mefloquine] | > 50 µM | No (Potency EC50 or IC50 < 10 µM) |  | No |  |  | 
23 | CC(=O)CCCCn1c(=O)c2c(ncn2C)n(C)c1=O [Pentoxyfilline, pentoxyfilline] | > 50 µM | No (Potency EC50 or IC50 < 10 µM) |  | No |  |  | 
24 | O=C(Nc1ncc([N+](=O)[O-])s1)c1ccccc1O [Tizoxanide, tizoxanide] | > 100 µM |  |  |  |  |  | 
